Values of other authors in patent US20040063658A1, “Nucleoside derivatives for treating hepatitis C virus infection” (priority 2002, published 2004).

Key:
[1] = patients treated at currently recommended doses
HCV = conditions: treatment of HCV with interferon, long term efficacy

Compound | patients with significant hemolysis [1] | response rate (HCV)
NC(=O)c1ncn([C@@H]2O[C@H](CO)[C@@H](O)[C@H]2O)n1 [Ribavirin, 1-β-D-ribofuranosyl-1H-1,2,-4-triazole-3-carboxamide] | 10-20% | 
interferon |  | about 25%
